Measurements from patent publication US12076320B2, “Diarylpyrazole compound, composition comprising same, and use thereof” (Shenzhen TargetRx, Inc., priority 2018, dated 2024).

How the values were obtained:
[1] = Metabolic stability evaluation in human liver microsomes; assay type: in vitro ADME; conditions: human liver microsomes 0.5 mg/mL, compound 1 μM; for microsomal CLint at 1 μM / half-life at 1 μM: pH 7.4; for microsomal CLint at 1 μM: read-out: HLM CL; for half-life at 1 μM: read-out: HLM T1/2
Description: (§1) Microsome assay: human liver microsomes (HLM): 0.5 mg/mL, Xenotech; rat liver microsomes (RLM): 0.5 mg/mL, Xenotech; coenzyme (NADPH/NADH): 1 mM, Sigma Life Science; magnesium chloride: 5 mM, 100 mM phosphate buffer (pH 7.4).
(§2) Preparation of stock solutions: Powders of the example compounds and the control compound were accurately weighed and dissolved in DMSO to 5 mM respectively.
(§3) Preparation of phosphate buffer (100 mM, pH 7.4): A pre-prepared 0.5 M potassium dihydrogen phosphate solution (150 mL) was mixed with a pre-prepared 0.5 M dibasic potassium phosphate solution (700 mL). The pH of the mixture was adjusted to 7.4 with a 0.5 M dibasic potassium phosphate solution. The mixture was diluted 5-fold with ultrapure water before use, and magnesium chloride was added to obtain a phosphate buffer (100 mM) containing 100 mM potassium phosphate, 3.3 mM magnesium chloride, pH 7.4.
(§4) A NADPH regeneration system solution (containing 6.5 mM NADP, 16.5 mM G-6-P, 3 U/mL G-6-P D, 3.3 mM magnesium chloride) was prepared and placed on wet ice before use.
(§5) Preparation of stop solution: an acetonitrile solution containing 50 ng/mL propranolol hydrochloride and 200 ng/mL tolbutamide (internal standard). 25057.5 μL of phosphate buffer (pH 7.4) was added into a 50 mL centrifuge tube, to which 812.5 μL of human liver microsomes were then added and mixed well to obtain a liver microsome dilution with a protein concentration of 0.625 mg/mL. 25057.5 μL of phosphate buffer (pH 7.4) was added into a 50 mL centrifuge tube, to which 812.5 μL of SD rat liver microsomes were then added and mixed well to obtain a liver microsome dilution with a protein concentration of 0.625 mg/mL.
(§6) Incubation of the samples: The stock solutions of the respective compounds were respectively diluted to 0.25 mM with an aqueous solution containing 70% acetonitrile, and used as a working solution, ready for use. 398 μL of the dilutions of human liver microsomes or rat liver microsomes were added to 96-well incubation plates (N=2), respectively, and 2 μL of 0.25 mM working solution was added respectively and nixed.
(§7) Metabolic stability assay: 300 μL of pre-chilled stop solution was added to each well of 96-well deep well plates and placed on ice as stop plates. The 96-well incubation plates and NADPH regeneration system were placed in a 37° C. water bath, shaken at 100 rpm and pre-incubated for 5 min. 80 μL of incubation solution was taken out from each well of the incubation plates, added to the stop plates, mixed well, and replenished with 20 μL of NADPH regeneration system solution. The resulting mixture was used as a 0-min sample. 80 μL of NADPH regeneration system solution was added to each well of the incubation plates to start the reaction and start counting. […] At 10, 30, and 90 minutes of the reaction, respectively, 100 μL of the reaction solutions were taken out, added to the stop plates, and vortexed for 3 minutes to stop the reaction. The stop plates were centrifuged at 5000×g at 4° C. for 10 min. 100 μL of the supernatant was taken out, added to a 96-well plate pre-added with 100 μL of distilled water, mixed well, and analyzed by LC-MS/MS.
(§8) Data analysis: The peak areas of the corresponding compounds and internal standard were detected by LC-MS/MS system, and the ratio of the peak area of the compounds to the internal standard was calculated.

[2] = Metabolic stability evaluation in rat liver microsomes; assay type: in vitro ADME, SD rat; conditions: rat liver microsomes 0.5 mg/mL, compound 1 μM; for microsomal CLint at 1 μM / half-life at 1 μM: SD, pH 7.4; for microsomal CLint at 1 μM: read-out: RLM CL; for half-life at 1 μM: read-out: RLM T1/2
Description: as §1, §2, §3, §4, §5, §6, §7, §8

[3] = system: HT-29 colorectal cancer cell line with BRAF V600E mutation; assay: Cytotoxicity assay (CTG, 72 hours); assay type: cell-based; conditions: Homo sapiens, HT-29 cells
Description: The cell viability was detected by trypan blue exclusion method to ensure that the cell viability was greater than 90%. The cells were inoculated in a 96-well plate and cultured overnight under the condition of 37° C. and 5% CO2. The 10-fold drug solutions were prepared by a 3.16-fold serial dilution starting from a maximum concentration of 1 μM, resulting in 9 concentrations. 10 μL of the drug solutions were added to each well of the 96-well plate in triplicate, and the incubation was further continued for 72 hours. An equal volume of CTG solution was added to each well, and the cell plate w as shaked on an orbital shaker for 5 minutes to lyse the cells. The cell plate was placed at room temperature for 20 minutes to stabilize the luminescence signal, and the luminescence values were then read on a SpectraMax multi-label microplate reader (MD, 2104-0010A). The data were analyzed with GraphPad Prism 5.0 software, and fitted using the non-linear S-curve regression to obtain a dose-effect curve, from which IC50 values were calculated accordingly.

[4] = at weakly acidic and neutral pH; cited from earlier work

Compound | microsomal CLint at 1 μM [1] [µL/min/mg] | half-life at 1 μM [1] [h] | microsomal CLint at 1 μM [2] [µL/min/mg] | half-life at 1 μM [2] [h] | IC50 [3] [nM] | water-solubility [4] | HLM CL [1] [µL/min/mg] | HLM T1/2 [1] [h] | RLM CL [2] [µL/min/mg] | RLM T1/2 [2] [h]
[2H]C([2H])([2H])C([2H])(n1cc(-c2ccnc(NC[C@H](C)NC(=O)OC)n2)c(-c2cc(Cl)cc(NS(C)(=O)=O)c2F)n1)C([2H])([2H])[2H] (single isomer, unassigned) [L-1] | 9.47 | 2.44 | 11.8 | 1.95 | – | – | – | – | – | –
[2H]C([2H])([2H])OC(=O)N[C@@H](C)CNc1nccc(-c2cn(C(C)C)nc2-c2cc(Cl)cc(NS(C)(=O)=O)c2F)n1 (single isomer, unassigned) [L-2] | 9.07 | 2.55 | 16.8 | 1.38 | – | – | – | – | – | –
[2H]C([2H])([2H])OC(=O)N[C@@H](C)CNc1nccc(-c2cn(C([2H])(C([2H])([2H])[2H])C([2H])([2H])[2H])nc2-c2cc(Cl)cc(NS(C)(=O)=O)c2F)n1 (single isomer, unassigned) [L-3] | 4.87 | 4.75 | 11.3 | 2.04 | – | – | – | – | – | –
[2H]C([2H])([2H])[C@H](NC(=O)OC)C([2H])([2H])Nc1nccc(-c2cn(C(C)C)nc2-c2cc(Cl)cc(NS(C)(=O)=O)c2F)n1 (single isomer, unassigned) [L-4-S] | 12.5 | 1.85 | 16.7 | 1.38 | – | – | – | – | – | –
COC(=O)N[C@@H](C)CNc1nccc(-c2cn(C(C)C)nc2-c2cc(Cl)cc(NS(C)(=O)=O)c2F)n1 [Encorafenib, (S)-methyl (1-((4-(3-(5-chloro-2-fluoro-3-(methylsulfonamido)phenyl)-1-isopropyl-1H-pyrazol-4-yl)pyrimidin-2-yl)amino)propan-2-yl)carbamate, reference compound] | 17.3 | 1.33 | 17.4 | 1.33 | 8.96 | poor | – | – | – | –
[2H]C([2H])([2H])[C@H](NC(=O)OC)C([2H])([2H])Nc1nccc(-c2cn(C([2H])(C([2H])([2H])[2H])C([2H])([2H])[2H])nc2-c2cc(Cl)cc(NS(C)(=O)=O)c2F)n1 [L-5-S, (S)-methyl (1-((4-(3-(5-chloro-2-fluoro-3-(methylsulfonamido)phenyl)-1-(propan-2-yl-d7)-3-1H-pyrazol-4-yl)pyrimidin-2-yl)amino)propan-2-yl-1,1,3,3,3-d5)carbamate] | – | – | – | – | – | – | 5.69 | 4.0628 | 10.22 | 2.2595
